Experimental data published in ChEMBL document CHEMBL5385973, “Progress in small-molecule inhibitors targeting PD-L1” (RSC Med Chem, 2024).

Tests used:
[1] = molecular target: T1, Programmed cell death protein 1/Programmed cell death 1 ligand 1 (Homo sapiens, UniProt Q9NZQ7); assay: Inhibition of PD-1/PD-L1 interaction (unknown origin) by AlphaLISA assay relative to control; format: protein-complex assay
[2] = molecular target: T1, Programmed cell death protein 1/Programmed cell death 1 ligand 1; assay: Inhibition of PD-1/PD-L1 (unknown origin) interaction incubated for 1 hr by HTRF assay; format: protein-complex assay
[3] = molecular target: T1, Programmed cell death protein 1/Programmed cell death 1 ligand 1; assay: Inhibition of PD-1 (unknown origin)/PD-L1 (unknown origin) interaction by HTRF binding assay; format: protein-complex assay
[4] = molecular target: T1, Programmed cell death protein 1/Programmed cell death 1 ligand 1; assay: Inhibition of human […] interaction incubated for 15 mins by TR-FRET assay; format: protein-complex assay
[5] = molecular target: T1, Programmed cell death protein 1/Programmed cell death 1 ligand 1; assay: Inhibition of PD-1/PD-L1 (unknown origin) protein-protein interaction incubated for 15 mins by TR-FRET assay; format: protein-complex assay
[6] = molecular target: T1, Programmed cell death protein 1/Programmed cell death 1 ligand 1; assay: Inhibition of PD-1/PD-L1 (unknown origin) interaction; format: protein-complex assay
[7] = molecular target: T1, Programmed cell death protein 1/Programmed cell death 1 ligand 1; assay: Inhibition of PD-1/PD-L1 (unknown origin) interaction incubated for 2 hr by TR-FRET assay; format: protein-complex assay
Jurkat = assay: Induction of T cell activation in human Jurkat T cells overexpressing PD-1 co-cultured with Chinese hamster CHO cells overexpressing PD-L1 assessed as increase in luciferase activity incubated for 6 hrs by Bio-GloTM reagent based immune checkpoint blockade assay; format: functional
[8] = molecular target: T1, Programmed cell death protein 1/Programmed cell death 1 ligand 1; assay: Inhibition of human PD-1/PD-L1 interaction incubated for 24 hrs by HTRF assay; format: protein-complex assay
[9] = molecular target: T1, Programmed cell death protein 1/Programmed cell death 1 ligand 1; assay: Inhibition of PD-1/PD-L1 interaction (unknown origin) by TR-FRET assay; format: protein-complex assay
[10] = molecular target: Programmed cell death 1 ligand 1 (Homo sapiens) (UniProt Q9NZQ7); assay: Binding affinity to PD-L1 (unknown origin) assessed as Gibbs free energy change
Programmed cell death 1 ligand 1 (Homo sapiens), sequence (Q9NZQ7 whole entry): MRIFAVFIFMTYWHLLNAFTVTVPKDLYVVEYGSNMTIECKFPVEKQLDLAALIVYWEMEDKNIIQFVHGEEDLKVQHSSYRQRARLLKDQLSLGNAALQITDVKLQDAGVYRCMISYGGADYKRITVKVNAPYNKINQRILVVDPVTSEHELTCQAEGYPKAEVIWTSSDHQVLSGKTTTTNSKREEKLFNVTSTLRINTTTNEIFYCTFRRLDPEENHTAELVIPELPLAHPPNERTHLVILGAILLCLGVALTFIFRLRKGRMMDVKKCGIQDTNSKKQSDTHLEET

T1 sequence (Q15116 whole entry): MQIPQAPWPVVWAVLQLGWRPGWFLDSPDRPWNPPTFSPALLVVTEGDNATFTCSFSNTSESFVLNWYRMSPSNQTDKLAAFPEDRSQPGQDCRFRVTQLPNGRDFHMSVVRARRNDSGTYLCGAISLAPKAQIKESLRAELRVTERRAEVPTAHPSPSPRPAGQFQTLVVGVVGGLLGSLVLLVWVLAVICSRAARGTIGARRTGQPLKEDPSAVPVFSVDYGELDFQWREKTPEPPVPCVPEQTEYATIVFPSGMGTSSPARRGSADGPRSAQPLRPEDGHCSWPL
T1 sequence (Q9NZQ7 whole entry): as the sequence (Q9NZQ7 whole entry) above

## Cc1c(COc2cc(OCc3cncc(C#N)c3)c(CNC(C)(C)C(=O)O)cc2Cl)cccc1-c1ccccc1
[1]
  IC50: 2.7 nM

## Cc1c(COc2cc(OCc3ccc(OC(F)(F)F)nc3)c(N3CCCCC3C(=O)O)cc2Cl)cccc1-c1ccccc1 (centres undefined)
[2]
  IC50: 56.6 nM

## O=C(O)[C@H](CO)NCc1cc(Cl)c(OCc2cccc(-c3ccccc3)c2Br)cc1OCc1cccnc1
[3]
  IC50: 1.1 nM

## CS(=O)(=O)c1cncc(CCc2nc(OCc3cccc(-c4cccc(-c5ccc6c(c5)C[C@H](N)C6)c4Cl)c3Cl)c(Br)cc2CN2CCCC[C@@H]2C(=O)O)c1
[4]
  IC50: 0.09 nM

## Cc1c(COc2cc(OCc3cncc(C#N)c3)c(CN(CCCN(C)C)CCS(=O)(=O)O)cc2Cl)cccc1-c1ccc2c(c1)OCCO2
[1]
  IC50: 2.7 nM

## Cc1cc(/C=C/c2ccc3cc(N(C)C)ccc3[n+]2C)c(C)n1-c1ccccc1
[5]
  IC50: 29.7 nM

## O=C(O)[C@H](CO)NCc1ccc(Nc2nsc3c(-c4ccc5c(c4)OCCO5)cccc23)c(Br)c1
[6]
  IC50: 5.7 nM

## Cn1nc(Nc2cccc(-c3ccc4c(c3)OCCO4)c2Cl)c2ccc(CN[C@H](CO)C(=O)O)cc21
[7]
  IC50: 9.6 nM
Jurkat
  EC50: 1610 nM

## Cc1c(/C=C/c2ccc(CNC(C)(CO)C(=O)O)cc2C(F)(F)F)cccc1-c1ccc2c(c1)OCCO2 (centres undefined)
[8]
  IC50: 18 nM

## Cc1c(COc2cc(OCc3cccc(C#N)c3)c(CNC(CO)(CO)CO)cc2Cl)cccc1-c1cccc(-c2cc(C(=O)N3CC[C@@H](O)C3)no2)c1
[9]
  IC50: 23 nM

## CC(C)OC(=O)[C@H](CO)NCc1cc(Cl)c(OCc2cccc(-c3ccccc3)c2Br)cc1OCc1cccnc1
[3]
  IC50: 45.2 nM

## Cc1c(COc2cc(OCc3cccc(C#N)c3)c(CN3C[C@H](O)C[C@@H]3C(=O)O)cc2Cl)cccc1-c1ccc2c(c1)OCCO2
[10]
  deltaG: -34 kcal/mol

## Fc1cccc(-c2nccc(N[C@@H]3CO[C@@H]4[C@H]3OC[C@H]4NCc3ccccn3)n2)c1
[10]
  deltaG: -32 kcal/mol
